From patent US7273723B2, “Antibiotic-based gene regulation system” (priority 2001, dated 2007)

Tests used:
Format in all cases: cell-based
[1] = test system: ET1 / plant promoters PETRp1, PETRp8; test: EpOFF erythromycin-repressible GUS expression in Nicotiana tabacum SR1 suspension cells; settings: erythromycin 250 μg/ml, 48 hours
Procedure: The transformation protocol of SR1 cells was adapted from Wu and Feng (1999, Plant Cell Reports 18: 381-386). In brief, 200 mg of exponentially growing SR1 cells were harvested by centrifugation. The cells were incubated for 15 min. in 2% DMSO and washed twice in fresh medium. Cells were subsequently resuspended in electroporation buffer (5 mM CaCl2; 10 mM NaCl2; 0.4 M sucrose; 8.7% glycerol; 4 mM ascorbate; 10 mM HEPES; pH 6.8) and mixed with desired DNA at a concentration of 0.2 μg/μl. The cell-DNA mixture was incubated for 10 min. on ice electroporated at 700 V/cm and 980 μF using a BioRad Gene Pulser and appropriate cuvettes. […]
Transformed SR1 cells were incubated at 25° C. for 48 h while rocking at 110 rpm. […] Protein concentration of plant extracts was determined using a Bradford assay (Bradford, 1976, Anal. Biochem. 72: 248-254). […] The fluorescence time course was determined using typical 365 nm/455 nm excitation/emission profiles and a Shimadzu RF-5001 PC spectrofluorophotometer.
pBP6 (PCaMV35S-ET1-pAocs, FIG. 9a) was cotransformed either with pBP 18 (PETRp1-GUS-pA35S; FIG. 9b) or pBP36 (PETRp8-GUS-pA35S; FIG. 9b) by electroporation into the Nicotiana tabacum cell line SR1. GUS activity was assessed after 48 hours using a fluorescence-based detection technology.

[2] = test system: MphR(A) or MphR(A)-NLS / plant promoters PETRpON4, PETRpON8; test: EpON erythromycin-inducible GUS expression in Nicotiana tabacum SR1 suspension cells; settings: 250 μg/ml erythromycin
Procedure: The transformation protocol of SR1 cells was adapted from Wu and Feng (1999, Plant Cell Reports 18: 381-386). In brief, 200 mg of exponentially growing SR1 cells were harvested by centrifugation. The cells were incubated for 15 min. in 2% DMSO and washed twice in fresh medium. Cells were subsequently resuspended in electroporation buffer (5 mM CaCl2; 10 mM NaCl2; 0.4 M sucrose; 8.7% glycerol; 4 mM ascorbate; 10 mM HEPES; pH 6.8) and mixed with desired DNA at a concentration of 0.2 μg/μl. The cell-DNA mixture was incubated for 10 min. on ice electroporated at 700 V/cm and 980 μF using a BioRad Gene Pulser and appropriate cuvettes. Following electroporation, cells were kept on ice for 10 min. and deplasmolyzed by 4 subsequent additions of 100 μl LS medium at 5 min. intervals. Transformation rates 20%±5% are typically reached with SR1 cells using this modified protocol.
Transformed SR1 cells were incubated at 25° C. for 48 h while rocking at 110 rpm. […] Cells were lysed in extraction buffer (50 mM NaH2PO4; 10 mM EDTA; 0.1% Triton X-100; 0.1% sodium lauryl sarcosine; 10 mM β-mercaptoethanol; pH 7.0) by freezing them in liquid nitrogen and grinding them using a micropestle. Soluble protein extract was collected by centrifugation for 20 min. at 15,000 rpm and 4° C. Protein concentration of plant extracts was determined using a Bradford assay (Bradford, 1976, Anal. Biochem. 72: 248-254). The GUS expression assay was performed following a modified protocol by Jefferson et al. (1987; EMBO J. 6: 3901-3907). In brief, 100 μl of cell extract were incubated in extraction buffer (see above) also containing 1 mM of the β-glucuronidase substrate 4-methylumbelliferyl glucuronide (MUG; Duchefa, NL). The reaction mixture was incubated at 37° C. and 100 μl aliquots were removed at appropriate time intervals and the reaction stopped by addition of 1.9 ml of 0.2 M K2CO3. The fluorescence time course was determined using typical 365 nm/455 nm excitation/emission profiles and a Shimadzu RF-5001 PC spectrofluorophotometer.
For regulated expression in transgenic plants and plant tissue culture an inducible rather than a repressible gene regulation system would be desirable. This enables induction of transgene […] by addition of the antibiotic rather than by its withdrawal. We therefore constructed an erythromycin-inducible plant gene regulation system (EpON) which consisted of the E. coli MphR(A) repressor protein (SEQ ID NO: 4) which binds, in the absence of macrolide antibiotics, to the ETR binding module cloned downstream of a strong constitutive plant promoter (PCaMV35S). Binding of MphR(A) to the ETR module blocks PCaMV35S-mediated target gene expression. […]

[3] = test system: PETR1-YFP and PhCMV*-1-CFP expression units; test: Dual-regulated vector pDuoRex9 (pWW94) in CHO-Triplet42 by fluorescence microscopy; settings: transient transfection into CHO-Triplet42

CC[C@H]1OC(=O)[C@H](C)[C@@H](O[C@H]2C[C@@](C)(OC)[C@@H](O)[C@H](C)O2)[C@H](C)[C@@H](O[C@@H]2O[C@H](C)C[C@H](N(C)C)[C@H]2O)[C@](C)(O)C[C@@H](C)C(=O)[C@H](C)[C@@H](O)[C@]1(C)O [Erythromycin]
GUS expression level in the presence of erythromycin ([1]; pBP6 + pBP18 (PETRp1)): 32.2±3.9 pmoles 4-MU min^−1 mg^−1 protein^−1
GUS expression level in the presence of erythromycin ([1]; pBP6 + pBP36 (PETRp8)): 44.2±4.6 pmoles 4-MU min^−1 mg^−1 protein^−1
GUS activity upon addition of erythromycin ([2]; pBP8/pBP15 (MphR(A)-NLS / PETRpON4)): 313.5±39.6 pmoles 4-MU min^−1 mg^−1 protein^−1
GUS activity upon addition of erythromycin ([2]; pBP8/pBP35 (MphR(A)-NLS / PETRpON8)): 283.6±24.7 pmoles 4-MU min^−1 mg^−1 protein^−1
GUS activity upon addition of erythromycin ([2]; pBP9/pBP15 (MphR(A) / PETRpON4)): 305.2±24.9 pmoles 4-MU min^−1 mg^−1 protein^−1
GUS activity upon addition of erythromycin ([2]; pBP9/pBP35 (MphR(A) / PETRpON8)): 276.7±34.1 pmoles 4-MU min^−1 mg^−1 protein^−1
YFP and CFP expression from pDuoRex9 (fluorescence microscopy) [3]: independent on/off-regulation
